≈ marks a conversion by molar mass, not a printed value. Where a name gives a salt, the structure may show the parent alone.
Legend:
[1] = adsorption to extracted enamel tooth surfaces, spectrophotometric; parameters: species or system human; settings: after no more was removed; fresh portions of the solutions
Description: Absorption of the compounds of this invention to extracted, non-carious, unprepared enamel tooth surfaces was investigated by the following procedure. Extracted human teeth, having their roots coated with wax so that only the enamel crowns were exposed, were immersed in 10 ml portions of stirred aqueous solutions of the test compound having a concentration of 10 micrograms/milliliter. After 10 minutes, the teeth were removed and the amount of test compound removed from the solution by adsorption was determined spectrophotometrically. […] The adsorption of the compounds of this invention was compared with that of chlorhexidine and found to be substantially greater. […] After no more of the test compounds was removed from the solution by adsorption, the teeth were immersed in fresh portions of the solutions.

dental plaque = settings: cited from earlier work
[2] = when swallowed; cited from earlier work
[3] = in vivo; cited from earlier work
[4] = at the prevailing pH of the mouth; cited from earlier work
S. Mutans = assay: quantitative serial dilution test, minimal inhibitory concentration; type: cell-based; settings: Streptococcus mutans, brain-heart infusion broth, half strength, 37° C., 36 hours
Description: A quantitative serial dilution test may also be performed by the following procedure.
A 20 mg/ml solution of the compound to be tested is prepared in a standard brain-heart infusion broth medium which has been diluted with water to one-half standard strength. Serial dilutions are prepared by adding 1 ml of the solution to a test tube containing 9 ml of medium. Five milliliters of the resulting solution are then added to another test tube containing 5 ml of the medium. The resulting solution is then again diluted by the same procedure. Ordinarily one tenfold dilution and four twofold dilutions are made. The procedure can be continued if more dilute solutions are required. Each of the series of tubes containing solutions of the compounds to be assayed is inoculated with two drops of a heavy culture of the chosen microorganisms in the brain-heart infusion broth. The tubes are incubated at 37° C. for 36 hours and the most dilute solution showing no microbial growth is noted. The concentration of this solution is reported as the minimal inhibitory concentration (MIC).
The minimum inhibitory concentration of a number of the compounds of this invention with respect to the microorganism S. Mutans were determined by the procedure described above. Chlorhexidine diacetate a commercially successful antimicrobial was used as a control.

mice = assay: acute oral toxicity in mice; type: in vivo; settings: 8 gms/Kg orally
Description: Acute oral toxicity of the compounds of this invention is determined in mice by the following procedure. The mice are fasted overnight, then formed into groups of 10 for testing. The animals in each group are fed a chosen dose and the dose is varied from group to group to cover a range of doses. The groups are then observed for a period of five days and the number of dead animals in each group is noted each day.

SMILES | MIC (S. Mutans) [µg/mL] | also measured
[H]/N=C(\N/C(=N/[H])NCCCCCCNC(=N)NC(=N)Nc1ccc(Cl)cc1)Nc1ccc(Cl)cc1 [chlorhexidine, 1,6-bis-(p-chlorophenylbiguanidino)hexane] |  | further adsorption from fresh portions of solution [1]: No further adsorption; clinical antiplaque effect (dental plaque): clinically effected antiplaque agents; adsorption to gastrointestinal mucosa [2]: adsorbed to the gastrointestinal mucosa; local irritation of the oral mucosa and tongue [3]: produce local irritation of the oral mucosa and tongue; ionization state [4]: almost entirely cationic
N=C(NCCCCCCCNC(=N)NC(=O)Nc1ccc(Cl)cc1)NC(=O)Nc1ccc(Cl)cc1 [1,7-bis(4-chlorophenylcarbamylguanidino)heptane dihydrochloride] | 0.312 | 
N=C(NCCCCCCNC(=N)NC(=O)Nc1ccc(Cl)cc1)NC(=O)Nc1ccc(Cl)cc1 [1,6-bis(4-chlorophenylcarbamylguanidino)hexane diacetate] | 0.078 | 
CCCCC(CC)CNC(=N)NC(=N)NCCCCCCNC(=N)NC(=N)NCC(CC)CCCC (centres unmarked) [alexidine, 1,6-bis(2-ethylhexylbiguanidino)hexane] |  | clinical antiplaque effect (dental plaque): clinically effected antiplaque agents; adsorption to gastrointestinal mucosa [2]: adsorbed to the gastrointestinal mucosa; local irritation of the oral mucosa and tongue [3]: produce local irritation of the oral mucosa and tongue; ionization state [4]: almost entirely cationic
N=C(NCCCCNC(=N)NC(=O)Nc1ccc(Cl)cc1)NC(=O)Nc1ccc(Cl)cc1 [1,4-bis(4-chlorophenylcarbamylguanidino)butane] | 0.625 (≈ 1.3 µM) | 
N=C(NCCCCCCNC(=N)NC(=O)Nc1ccc(F)cc1)NC(=O)Nc1ccc(F)cc1 [1,6-bis(4-fluorophenylcarbamylguanidino)hexane diacetate] | 0.156 | 
N=C(NCCCCCCNC(=N)NC(=O)Nc1ccccc1Cl)NC(=O)Nc1ccccc1Cl [1,6-bis(2-chlorophenylcarbamylguanidino)hexane diacetate] | 0.312 | 
N=C(NCCCCCCNC(=N)NC(=N)Nc1ccc(Cl)cc1)NC(=N)Nc1ccc(Cl)cc1 [chlorhexidine diacetate, reference compound] | 0.078 | 
N=C(NCCCCCCNC(=N)NC(=O)Nc1ccc(Cl)cc1)NC(=O)Nc1ccc(Cl)cc1 [1,6-Bis-(p-chlorophenylcarbamylguanidino)hexane] |  | acute oral toxicity (mice): essentially atoxic

Continued, in another order:

MIC (S. Mutans) [µg/mL] | SMILES | also measured
0.625 (≈ 1.22 µM) | CCCCC(CC)CNC(=O)NC(=N)NCCCCCCNC(=N)NC(=O)NCC(CC)CCCC (centres unmarked) [1,6-bis(2-ethylhexylcarbamylguanidino)hexane] | 
0.078 | N=C(NCCCCCNC(=N)NC(=O)Nc1ccc(Cl)cc1)NC(=O)Nc1ccc(Cl)cc1 [1,5-bis(4-chlorophenylcarbamylguanidino)pentane monoacetate] | 
0.312 | N=C(NCCCCCCNC(=N)NC(=O)Nc1ccc(Br)cc1)NC(=O)Nc1ccc(Br)cc1 [1,6-bis(4-bromophenylcarbamylguanidino)hexane diacetate] | 
2.5 (≈ 4.93 µM) | N=C(NC(=O)NCCCCCCNC(=O)NC(=N)Nc1ccc(Cl)cc1)Nc1ccc(Cl)cc1 [1,6-Bis(p-chlorophenylamidinoureido)hexane] | 
0.312 | N=C(NCCCCCCNC(=N)NC(=O)Nc1cccc(C(F)(F)F)c1)NC(=O)Nc1cccc(C(F)(F)F)c1 [1,6-bis(3-trifluoromethylphenylcarbamylguanidino)hexane dihydrochloride] | 
0.625 (≈ 1.43 µM) | N=C(NCCCCCCNC(=N)NC(=O)Nc1ccccc1)NC(=O)Nc1ccccc1 [1,6-bis(phenylcarbamylguanidino)hexane] | 
0.078 | N=C(NCCCCCCNC(=N)NC(=O)Nc1cccc(Cl)c1)NC(=O)Nc1cccc(Cl)c1 [1,6-bis(3-chlorophenylcarbamylguanidino)hexane diacetate] | 
